Assay results taken from the kinase profiling compilation of Christmann-Franck et al. (2016).

Assays:
Assay in all cases: radiometric filter-binding kinase assay, Kinase HotSpot
Settings in all cases: compound 0.5 µM; ATP 10 µM
CDK6 CCND1 (human) = CDK6 CCND1 (human) (UniProt Q00534+P24385)
PDGFRA (human) = PDGFRA (human) (UniProt P16234)
TYRO3 (human) = TYRO3 (human) (UniProt Q06418)
EGFR (human) = EGFR (human) (UniProt P00533)
MAPKAPK2 (human) = MAPKAPK2 (human) (UniProt P49137)
MAPK9 (human) = MAPK9 (human) (UniProt P45984)
LTK (human) = LTK (human) (UniProt P29376)
PRKX (human) = PRKX (human) (UniProt P51817)
STK10 (human) = STK10 (human) (UniProt O94804)
SRPK3 (human) = SRPK3 (human) (UniProt Q9UPE1)
MAP3K3 (human) = MAP3K3 (human) (UniProt Q99759)
AXL (human) = AXL (human) (UniProt P30530)
PRKD1 (human) = PRKD1 (human) (UniProt Q15139)
EPHA7 (human) = EPHA7 (human) (UniProt Q15375)
CHUK (human) = CHUK (human) (UniProt O15111)
EPHA5 (human) = EPHA5 (human) (UniProt P54756)
YES1 (human) = YES1 (human) (UniProt P07947)
DSTYK (human) = DSTYK (human) (UniProt Q6XUX3)
MAP2K2 (human) = MAP2K2 (human) (UniProt P36507)
AURKC (human) = AURKC (human) (UniProt Q9UQB9)
CHEK2 (human) = CHEK2 (human) (UniProt O96017)
MAP3K11 (human) = MAP3K11 (human) (UniProt Q16584)
CLK2 (human) = CLK2 (human) (UniProt P49760)
INSRR (human) = INSRR (human) (UniProt P14616)
CSNK1D (human) = CSNK1D (human) (UniProt P48730)
JAK3 JH1 JH2 (human) = JAK3 JH1 JH2 (human) (UniProt P52333)
[1] = tested on: PRKCQ (human), Q04759 [P330L]
CDC42BPB (human) = CDC42BPB (human) (UniProt Q9Y5S2)
CSNK1G3 (human) = CSNK1G3 (human) (UniProt Q9Y6M4)
TBK1 (human) = TBK1 (human) (UniProt Q9UHD2)
CLK3 (human) = CLK3 (human) (UniProt P49761)
STK11 (human) = STK11 (human) (UniProt Q15831)
CDK9 CCNT1 (human) = CDK9 CCNT1 (human) (UniProt P50750+O60563)
FLT3 (human) = FLT3 (human) (UniProt P36888)
CAMK4 (human) = CAMK4 (human) (UniProt Q16566)
CDK4 CCND3 (human) = CDK4 CCND3 (human) (UniProt P30281+P11802)
ABL1 (human) = ABL1 (human) (UniProt P00519)
PRKG2 (human) = PRKG2 (human) (UniProt Q13237)
PRKCD (human) = PRKCD (human) (UniProt Q05655)
HIPK4 (human) = HIPK4 (human) (UniProt Q8NE63)
TGFBR1 (human) = TGFBR1 (human) (UniProt P36897)
CAMK1G (human) = CAMK1G (human) (UniProt Q96NX5)

Chain of JAK3 JH1 JH2 (human) (P52333 whole entry, looked up): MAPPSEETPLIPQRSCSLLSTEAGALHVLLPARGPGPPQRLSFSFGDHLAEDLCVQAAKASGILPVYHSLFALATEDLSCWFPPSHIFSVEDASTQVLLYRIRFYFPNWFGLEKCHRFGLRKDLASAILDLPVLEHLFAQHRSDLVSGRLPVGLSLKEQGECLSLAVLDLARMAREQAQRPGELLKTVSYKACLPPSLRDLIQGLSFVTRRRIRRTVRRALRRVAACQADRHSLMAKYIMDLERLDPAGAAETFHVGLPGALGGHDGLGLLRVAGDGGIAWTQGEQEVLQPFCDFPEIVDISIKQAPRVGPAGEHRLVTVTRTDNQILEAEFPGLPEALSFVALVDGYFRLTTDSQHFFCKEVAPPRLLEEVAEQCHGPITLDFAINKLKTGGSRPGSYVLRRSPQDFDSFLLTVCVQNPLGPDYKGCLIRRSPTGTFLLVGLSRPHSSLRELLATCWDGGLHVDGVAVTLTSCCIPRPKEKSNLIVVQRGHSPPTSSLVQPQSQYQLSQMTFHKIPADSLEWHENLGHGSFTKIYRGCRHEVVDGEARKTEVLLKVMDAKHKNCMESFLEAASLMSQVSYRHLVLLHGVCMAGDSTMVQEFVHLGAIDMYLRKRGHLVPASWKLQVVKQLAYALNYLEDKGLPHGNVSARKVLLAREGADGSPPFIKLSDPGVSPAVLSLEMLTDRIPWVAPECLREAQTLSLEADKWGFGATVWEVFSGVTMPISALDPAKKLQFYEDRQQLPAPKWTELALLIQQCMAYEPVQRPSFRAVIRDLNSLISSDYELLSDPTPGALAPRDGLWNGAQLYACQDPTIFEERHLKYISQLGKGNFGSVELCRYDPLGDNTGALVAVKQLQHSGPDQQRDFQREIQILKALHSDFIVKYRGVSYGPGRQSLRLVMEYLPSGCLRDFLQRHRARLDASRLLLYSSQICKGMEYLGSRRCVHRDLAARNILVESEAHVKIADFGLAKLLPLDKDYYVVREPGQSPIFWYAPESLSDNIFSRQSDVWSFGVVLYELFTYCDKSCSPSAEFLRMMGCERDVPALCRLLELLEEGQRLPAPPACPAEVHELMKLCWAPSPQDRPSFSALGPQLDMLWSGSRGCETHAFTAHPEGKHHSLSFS
Chain of CSNK1D (human) (P48730 whole entry, looked up): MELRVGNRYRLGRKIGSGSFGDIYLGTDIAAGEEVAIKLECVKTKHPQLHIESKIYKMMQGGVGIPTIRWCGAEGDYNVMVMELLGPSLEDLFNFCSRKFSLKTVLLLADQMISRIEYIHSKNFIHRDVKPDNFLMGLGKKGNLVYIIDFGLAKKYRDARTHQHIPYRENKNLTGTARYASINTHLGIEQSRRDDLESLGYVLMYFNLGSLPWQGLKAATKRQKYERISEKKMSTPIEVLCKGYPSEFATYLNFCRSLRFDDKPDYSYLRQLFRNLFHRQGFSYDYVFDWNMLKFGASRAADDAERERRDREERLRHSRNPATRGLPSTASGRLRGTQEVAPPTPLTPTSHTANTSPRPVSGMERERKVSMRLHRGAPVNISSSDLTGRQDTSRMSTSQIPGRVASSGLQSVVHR
Chain of CHEK2 (human) (O96017 whole entry, looked up): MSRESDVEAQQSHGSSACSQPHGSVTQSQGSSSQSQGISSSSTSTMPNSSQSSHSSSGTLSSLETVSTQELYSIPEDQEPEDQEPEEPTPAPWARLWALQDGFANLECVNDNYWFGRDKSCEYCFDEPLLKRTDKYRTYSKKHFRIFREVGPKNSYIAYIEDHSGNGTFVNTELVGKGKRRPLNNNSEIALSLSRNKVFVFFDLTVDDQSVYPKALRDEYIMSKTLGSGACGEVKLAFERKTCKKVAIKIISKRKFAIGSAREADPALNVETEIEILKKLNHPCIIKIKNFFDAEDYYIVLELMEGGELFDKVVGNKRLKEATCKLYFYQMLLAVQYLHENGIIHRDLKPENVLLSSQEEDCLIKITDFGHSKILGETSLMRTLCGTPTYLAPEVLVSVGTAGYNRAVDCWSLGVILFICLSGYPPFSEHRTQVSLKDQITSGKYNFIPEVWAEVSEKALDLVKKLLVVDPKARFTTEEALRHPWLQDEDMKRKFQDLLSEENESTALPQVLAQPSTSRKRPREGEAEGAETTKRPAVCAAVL
Chain of CAMK4 (human) (Q16566 whole entry, looked up): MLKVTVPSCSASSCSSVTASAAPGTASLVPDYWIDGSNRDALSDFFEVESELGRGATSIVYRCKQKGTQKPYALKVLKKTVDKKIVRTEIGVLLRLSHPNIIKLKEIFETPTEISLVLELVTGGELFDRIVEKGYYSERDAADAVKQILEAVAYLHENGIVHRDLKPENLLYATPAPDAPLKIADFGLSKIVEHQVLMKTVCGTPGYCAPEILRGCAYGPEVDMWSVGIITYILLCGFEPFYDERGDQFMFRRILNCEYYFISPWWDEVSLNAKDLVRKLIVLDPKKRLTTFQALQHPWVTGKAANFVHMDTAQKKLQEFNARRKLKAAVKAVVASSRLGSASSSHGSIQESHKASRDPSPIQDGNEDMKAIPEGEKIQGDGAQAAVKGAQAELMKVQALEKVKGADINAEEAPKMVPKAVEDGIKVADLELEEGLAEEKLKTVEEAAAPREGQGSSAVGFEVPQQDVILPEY
Chain of MAPK9 (human) (P45984 whole entry, looked up): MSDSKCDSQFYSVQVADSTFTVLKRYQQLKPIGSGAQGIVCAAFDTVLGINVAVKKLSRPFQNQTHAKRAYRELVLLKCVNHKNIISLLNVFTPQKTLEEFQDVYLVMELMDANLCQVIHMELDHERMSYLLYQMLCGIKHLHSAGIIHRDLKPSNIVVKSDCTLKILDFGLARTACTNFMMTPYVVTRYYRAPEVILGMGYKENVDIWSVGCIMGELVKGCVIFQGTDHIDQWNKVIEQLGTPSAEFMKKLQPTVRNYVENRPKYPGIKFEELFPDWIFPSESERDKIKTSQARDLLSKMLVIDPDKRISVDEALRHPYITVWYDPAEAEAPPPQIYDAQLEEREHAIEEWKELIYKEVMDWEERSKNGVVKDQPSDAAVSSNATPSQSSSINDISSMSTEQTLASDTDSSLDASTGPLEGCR
Chain of MAP3K3 (human) (Q99759 whole entry, looked up): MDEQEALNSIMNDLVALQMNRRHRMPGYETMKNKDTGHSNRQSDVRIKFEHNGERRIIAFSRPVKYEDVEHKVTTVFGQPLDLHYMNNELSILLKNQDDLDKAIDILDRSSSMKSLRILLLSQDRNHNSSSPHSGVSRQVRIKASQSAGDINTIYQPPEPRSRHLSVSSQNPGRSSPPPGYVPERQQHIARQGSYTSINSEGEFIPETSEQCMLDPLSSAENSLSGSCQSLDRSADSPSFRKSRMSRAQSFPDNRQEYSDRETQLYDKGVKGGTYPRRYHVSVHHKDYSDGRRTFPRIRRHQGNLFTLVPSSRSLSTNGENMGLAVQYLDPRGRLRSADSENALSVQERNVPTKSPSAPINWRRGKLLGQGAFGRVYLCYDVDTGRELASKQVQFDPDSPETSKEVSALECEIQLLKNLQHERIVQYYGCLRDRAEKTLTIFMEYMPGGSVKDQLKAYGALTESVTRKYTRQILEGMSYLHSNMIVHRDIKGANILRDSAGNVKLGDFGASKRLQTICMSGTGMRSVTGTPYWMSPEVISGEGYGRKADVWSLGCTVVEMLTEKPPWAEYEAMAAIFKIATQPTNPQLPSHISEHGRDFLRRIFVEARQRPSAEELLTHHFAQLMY
Chain of EPHA5 (human) (P54756 whole entry, looked up): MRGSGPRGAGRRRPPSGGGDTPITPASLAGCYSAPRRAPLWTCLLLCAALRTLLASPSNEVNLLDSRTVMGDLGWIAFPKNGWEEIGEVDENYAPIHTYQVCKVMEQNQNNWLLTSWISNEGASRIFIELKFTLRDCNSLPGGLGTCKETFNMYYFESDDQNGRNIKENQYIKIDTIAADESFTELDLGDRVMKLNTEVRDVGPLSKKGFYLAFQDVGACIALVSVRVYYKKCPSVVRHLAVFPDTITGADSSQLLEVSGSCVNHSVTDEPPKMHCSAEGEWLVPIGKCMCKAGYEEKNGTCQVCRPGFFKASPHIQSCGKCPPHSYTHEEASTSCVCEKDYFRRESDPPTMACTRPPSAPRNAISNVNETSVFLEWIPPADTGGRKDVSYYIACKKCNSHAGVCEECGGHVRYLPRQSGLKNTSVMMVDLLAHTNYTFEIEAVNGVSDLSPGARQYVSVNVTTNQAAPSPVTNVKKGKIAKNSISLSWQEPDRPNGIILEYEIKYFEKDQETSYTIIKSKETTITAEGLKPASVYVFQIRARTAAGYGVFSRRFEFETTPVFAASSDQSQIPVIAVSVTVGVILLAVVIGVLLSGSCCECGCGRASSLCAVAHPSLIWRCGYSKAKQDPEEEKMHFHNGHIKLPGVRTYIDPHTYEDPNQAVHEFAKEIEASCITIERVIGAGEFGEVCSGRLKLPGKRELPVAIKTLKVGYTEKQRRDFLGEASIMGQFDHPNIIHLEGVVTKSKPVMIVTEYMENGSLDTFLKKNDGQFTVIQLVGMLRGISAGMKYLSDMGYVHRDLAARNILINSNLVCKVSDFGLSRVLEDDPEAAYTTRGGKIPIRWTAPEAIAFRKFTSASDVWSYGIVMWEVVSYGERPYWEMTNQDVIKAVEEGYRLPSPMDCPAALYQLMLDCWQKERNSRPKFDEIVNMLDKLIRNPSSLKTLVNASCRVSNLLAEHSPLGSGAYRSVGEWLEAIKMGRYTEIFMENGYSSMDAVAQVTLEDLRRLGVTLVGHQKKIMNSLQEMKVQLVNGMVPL
Chain of PRKX (human) (P51817 whole entry, looked up): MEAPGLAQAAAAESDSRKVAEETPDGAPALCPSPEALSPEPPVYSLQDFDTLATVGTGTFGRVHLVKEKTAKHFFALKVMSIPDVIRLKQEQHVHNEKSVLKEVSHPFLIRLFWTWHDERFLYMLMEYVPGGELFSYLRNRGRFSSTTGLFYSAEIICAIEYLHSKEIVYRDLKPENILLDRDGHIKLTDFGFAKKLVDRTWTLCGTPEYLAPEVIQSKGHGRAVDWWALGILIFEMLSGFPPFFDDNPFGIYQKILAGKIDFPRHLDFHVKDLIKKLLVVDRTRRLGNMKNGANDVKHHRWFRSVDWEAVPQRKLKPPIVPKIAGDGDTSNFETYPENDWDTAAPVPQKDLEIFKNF

Work on `COc1cc2ncnc(Nc3ccc(OCc4ccccc4)cc3)c2cc1OC` yielded a residual activity (CDK6 CCND1 (human)) of 96.7%, a residual activity (PDGFRA (human)) of 91.3% and a residual activity (TYRO3 (human)) of 86.9%. For the same molecule, the residual activity (EGFR (human)) was 21.3%, the residual activity (MAPKAPK2 (human)) was 106% and the residual activity (MAPK9 (human)) was 106%. The residual activity (LTK (human)) was 98.6%, the residual activity (PRKX (human)) was 105% and the residual activity (STK10 (human)) was 68.2%. For the same molecule, the residual activity (SRPK3 (human)) was 92.8%, the residual activity (MAP3K3 (human)) was 88.7% and the residual activity (AXL (human)) was 94.8%. It also gave a residual activity (PRKD1 (human)) of 101%, a residual activity (EPHA7 (human)) of 97% and a residual activity (CHUK (human)) of 95.1%. The residual activity (EPHA5 (human)) was 105%, the residual activity (YES1 (human)) was 36% and the residual activity (DSTYK (human)) was 95.9%. It also gave a residual activity (MAP2K2 (human)) of 98.5%, a residual activity (AURKC (human)) of 84.8% and a residual activity (CHEK2 (human)) of 14.2%. The residual activity (MAP3K11 (human)) was 92.2%, the residual activity (CLK2 (human)) was 102% and the residual activity (INSRR (human)) was 99.9%. It also gave a residual activity (CSNK1D (human)) of 96.6%, a residual activity (JAK3 JH1 JH2 (human)) of 108% and a residual activity [1] of 102%. The residual activity (CDC42BPB (human)) was 98.8%, the residual activity (CSNK1G3 (human)) was 92.9% and the residual activity (TBK1 (human)) was 101%. The residual activity (CLK3 (human)) was 98.2%, the residual activity (STK11 (human)) was 102% and the residual activity (CDK9 CCNT1 (human)) was 94.5%. It also gave a residual activity (FLT3 (human)) of 56.4%, a residual activity (CAMK4 (human)) of 101% and a residual activity (CDK4 CCND3 (human)) of 102%. The residual activity (ABL1 (human)) was 98%, the residual activity (PRKG2 (human)) was 104% and the residual activity (PRKCD (human)) was 101%. For the same molecule, the residual activity (HIPK4 (human)) was 100%, the residual activity (TGFBR1 (human)) was 95.7% and the residual activity (CAMK1G (human)) was 97.1%.

With `COc1ccc(S(=O)(=O)N(CCO)c2ccccc2CN(C)C/C=C/c2ccc(Cl)cc2)cc1` the residual activity (CDK6 CCND1 (human)) was 92.7%, the residual activity (PDGFRA (human)) was 102% and the residual activity (TYRO3 (human)) was 97.1%. It also gave a residual activity (EGFR (human)) of 106%, a residual activity (MAPKAPK2 (human)) of 102% and a residual activity (MAPK9 (human)) of 85.5%. The residual activity (LTK (human)) was 97.9%, the residual activity (PRKX (human)) was 104% and the residual activity (STK10 (human)) was 99.4%. It also gave a residual activity (SRPK3 (human)) of 97.3%, a residual activity (MAP3K3 (human)) of 99.8% and a residual activity (AXL (human)) of 104%. For the same molecule, the residual activity (PRKD1 (human)) was 100%, the residual activity (EPHA7 (human)) was 98.9% and the residual activity (CHUK (human)) was 92.7%. For the same molecule, the residual activity (EPHA5 (human)) was 98.1%, the residual activity (YES1 (human)) was 103% and the residual activity (DSTYK (human)) was 93.5%. For the same molecule, the residual activity (MAP2K2 (human)) was 100%, the residual activity (AURKC (human)) was 96.8% and the residual activity (CHEK2 (human)) was 101%. It also gave a residual activity (MAP3K11 (human)) of 99.3%, a residual activity (CLK2 (human)) of 96.7% and a residual activity (INSRR (human)) of 97%. It also gave a residual activity (CSNK1D (human)) of 102%, a residual activity (JAK3 JH1 JH2 (human)) of 97% and a residual activity [1] of 110%. It also gave a residual activity (CDC42BPB (human)) of 101%, a residual activity (CSNK1G3 (human)) of 98.3% and a residual activity (TBK1 (human)) of 97.1%. It also gave a residual activity (CLK3 (human)) of 100%, a residual activity (STK11 (human)) of 97.7% and a residual activity (CDK9 CCNT1 (human)) of 103%. The residual activity (FLT3 (human)) was 98.4%, the residual activity (CAMK4 (human)) was 97.5% and the residual activity (CDK4 CCND3 (human)) was 94.1%. The residual activity (ABL1 (human)) was 100%, the residual activity (PRKG2 (human)) was 104% and the residual activity (PRKCD (human)) was 94.3%. The residual activity (HIPK4 (human)) was 101%, the residual activity (TGFBR1 (human)) was 101% and the residual activity (CAMK1G (human)) was 101%.

With `O=C1c2ccccc2-c2nc3nnnn3nc21` the residual activity (CDK6 CCND1 (human)) was 59.6%, the residual activity (PDGFRA (human)) was 44.1% and the residual activity (TYRO3 (human)) was 33.3%. It also gave a residual activity (EGFR (human)) of 37%, a residual activity (MAPKAPK2 (human)) of 104% and a residual activity (MAPK9 (human)) of 51.9%. It also gave a residual activity (LTK (human)) of 177%, a residual activity (PRKX (human)) of 94.3% and a residual activity (STK10 (human)) of 84.3%. The residual activity (SRPK3 (human)) was 89.4%, the residual activity (MAP3K3 (human)) was 134% and the residual activity (AXL (human)) was 10.3%. For the same molecule, the residual activity (PRKD1 (human)) was 86.5%, the residual activity (EPHA7 (human)) was 81.9% and the residual activity (CHUK (human)) was 72%. The residual activity (EPHA5 (human)) was 81.5%, the residual activity (YES1 (human)) was 89.1% and the residual activity (DSTYK (human)) was 81.5%. It also gave a residual activity (MAP2K2 (human)) of 94.7%, a residual activity (AURKC (human)) of 95.4% and a residual activity (CHEK2 (human)) of 54.7%. It also gave a residual activity (MAP3K11 (human)) of 69%, a residual activity (CLK2 (human)) of 92.1% and a residual activity (INSRR (human)) of 86.7%. The residual activity (CSNK1D (human)) was 86.8%, the residual activity (JAK3 JH1 JH2 (human)) was 90.4% and the residual activity [1] was 83%. For the same molecule, the residual activity (CDC42BPB (human)) was 82.6%, the residual activity (CSNK1G3 (human)) was 80.3% and the residual activity (TBK1 (human)) was 87%. The residual activity (CLK3 (human)) was 81.2%, the residual activity (STK11 (human)) was 99.1% and the residual activity (CDK9 CCNT1 (human)) was 97%. It also gave a residual activity (FLT3 (human)) of 100%, a residual activity (CAMK4 (human)) of 85.4% and a residual activity (CDK4 CCND3 (human)) of 68.1%. For the same molecule, the residual activity (ABL1 (human)) was 89.7%, the residual activity (PRKG2 (human)) was 140% and the residual activity (PRKCD (human)) was 102%. For the same molecule, the residual activity (HIPK4 (human)) was 97.9%, the residual activity (TGFBR1 (human)) was 107% and the residual activity (CAMK1G (human)) was 28.5%.

`COc1ccc(C(=O)Nc2sc3c(c2C(N)=O)CCCC3)cc1OC` gave a residual activity (CDK6 CCND1 (human)) of 95.1%, a residual activity (PDGFRA (human)) of 96.4% and a residual activity (TYRO3 (human)) of 98.1%. For the same molecule, the residual activity (EGFR (human)) was 99.9%, the residual activity (MAPKAPK2 (human)) was 104% and the residual activity (MAPK9 (human)) was 118%. The residual activity (LTK (human)) was 40.5%, the residual activity (PRKX (human)) was 101% and the residual activity (STK10 (human)) was 93.9%. For the same molecule, the residual activity (SRPK3 (human)) was 92%, the residual activity (MAP3K3 (human)) was 100% and the residual activity (AXL (human)) was 84.4%. It also gave a residual activity (PRKD1 (human)) of 99.6%, a residual activity (EPHA7 (human)) of 96.2% and a residual activity (CHUK (human)) of 83.3%. For the same molecule, the residual activity (EPHA5 (human)) was 104%, the residual activity (YES1 (human)) was 88.3% and the residual activity (DSTYK (human)) was 92.2%. It also gave a residual activity (MAP2K2 (human)) of 95.3%, a residual activity (AURKC (human)) of 97.2% and a residual activity (CHEK2 (human)) of 93%. It also gave a residual activity (MAP3K11 (human)) of 96.8%, a residual activity (CLK2 (human)) of 86.5% and a residual activity (INSRR (human)) of 99.7%. For the same molecule, the residual activity (CSNK1D (human)) was 103%, the residual activity (JAK3 JH1 JH2 (human)) was 108% and the residual activity [1] was 97.5%. The residual activity (CDC42BPB (human)) was 94.5%, the residual activity (CSNK1G3 (human)) was 91.7% and the residual activity (TBK1 (human)) was 102%. For the same molecule, the residual activity (CLK3 (human)) was 63%, the residual activity (STK11 (human)) was 103% and the residual activity (CDK9 CCNT1 (human)) was 102%. For the same molecule, the residual activity (FLT3 (human)) was 42%, the residual activity (CAMK4 (human)) was 95.7% and the residual activity (CDK4 CCND3 (human)) was 98.8%. For the same molecule, the residual activity (ABL1 (human)) was 101%, the residual activity (PRKG2 (human)) was 104% and the residual activity (PRKCD (human)) was 81.8%. For the same molecule, the residual activity (HIPK4 (human)) was 103%, the residual activity (TGFBR1 (human)) was 95.8% and the residual activity (CAMK1G (human)) was 99.4%.
